Laboratory results: patent publication US20200363399A1, “SYSTEM AND METHOD FOR DETERMINING TUMOR INVASIVENESS” (University of Southern California, priority 2012, published 2020)

Test system: MDA-MB-231 cells
Test: Effect of Taxol on HFFU-induced Ca2+ elevations (cell response index, CRI), live-cell calcium fluorescence imaging
Assay type: cell-based, human
Conditions: for normalized CRI (cell response index): 24 h treatment, HFFU stimulation, n=10, normalized to 0 nM = 1.0
Description: In order to perform live-cell fluorescence imaging of target cells stimulated by HFFU, a HFFU stimulation system was added to an inverted epifluorescence microscope (Olympus 1X70). In order to generate the highly focused ultrasound beam for single cell stimulation, a 200-MHz press-focused LiNbO3 transducer (fc: 200 MHz and bandwidth: 29%) was used. The transducer was constructed with conventional transducer fabrication procedures (Lam et al., 2013). The focal length of the transducer was 1.3 mm and the f-number (F#) was 1.6. The measured beam width of the highly focused ultrasound beam was 17 μm, which was close to the predicted value of 12 μm (=focal length×wavelength) and approximately the size of a breast cancer cell. In order to generate the 200-MHz ultrasound beam, 200-MHz sinusoidal bursts from a function generator (Stanford Research Systems, Sunnyvale, Calif.) fed into a 50-dB power amplifier (525LA, ENI, USA) were used to drive the transducer. The resultant peak-to-peak (Vpp) voltages of the bursts were adjusted to 4, 8, 16, and 32 V. The duty factor was tuned to 1%, and the pulse repetition frequency (PRF) was 1 kHz.
Live-cell fluorescence imaging was carried out on the epifluorescence microscope to monitor the cytoplasmic Ca^2+ elevations elicited by HFFU in individual MDA-MB-231, MCF-7, SKBR3, and BT-474 cells labeled with Fluo-4 AM. Light from a mercury lamp was delivered to the cells for excitation after passing through an electronic shutter, an excitation bandpass filter (488±20 nm), a dichroic mirror (cut-off wavelength: 500 nm), and a 20×objective. Fluorescence emitted from the cells was then collected by the same objective and recorded using a high-sensitivity CCD camera (ORCA-Flash2.8, Hamamatsu, Japan) after passing through an emission bandpass filter (530±20 nm).
Fluo-4 AM was used for live-cell calcium fluorescence imaging. 10^5 cells were plated on 35 mm Petri dishes and incubated in the complete medium at 37° C. for 36 h before […] Fluo-4 AM solution, diluted with the external buffer solution, was added to the dishes. After the cells were incubated at room temperature for 30 min, the cells were thoroughly washed with external buffer solution and then time-lapse fluorescence imaging was initiated after the target cells were positioned at the beam focus. Fluorescence images were acquired at 1 Hz for t=300 s (exposure time: 300 ms), as the HFFU was switched on and off at t=50 s and t=200 s, respectively.
The program was written to obtain the mean normalized maximum calcium elevation value and a cell responding ratio from segmented images of target cells, semi-automatically. A cell responding ratio=the number of cells responding to HFFU/the number of total cells subjected to HFFU. More specifically, after fluorescence images of cells acquired at different time-points (0-300 s, step: 1 s) were averaged, the target cell receiving HFFU in the averaged image was selected and segmented by Otsu's method (Otsu, 1979), followed by the calculation of mean fluorescence intensities in the segmented regions of each image obtained at the indicated time-points. Temporal changes of the mean fluorescence in the target cell were then analyzed to determine whether calcium elevations were elicited by HFFU in the cell. The calcium elevation was here measured as the increase in the fluorescence intensity. […]

With `CC(=O)O[C@H]1C(=O)[C@@]2(C)[C@H]([C@H](OC(=O)c3ccccc3)[C@]3(O)C[C@H](OC(=O)[C@H](O)[C@@H](NC(=O)c4ccccc4)c4ccccc4)C(C)=C1C3(C)C)[C@]1(OC(C)=O)CO[C@@H]1C[C@@H]2O` [Taxol] the “reduction of the CRI relative to the untreated cells” value (1 nM Taxol) was −50%, the “normalized CRI (cell response index)” value (1 nM Taxol) was 0.52 and the “normalized CRI (cell response index)” value (10 nM Taxol) was 0.29. The “CRI remaining (reduced to)” value (100 nM Taxol) was 0% and the “normalized CRI (cell response index)” value (100 nM Taxol) was 0.
